Among the data in ChEMBL document CHEMBL3046371, “Benzimidazole derivatives: synthesis, leishmanicidal effectiveness, and molecular docking studies” (Med Chem Res, 2013) are IC50 values, retold here.

In this test the test system is Leishmania major. The test is described as follows: Antileishmanial activity against promastigote form of Leishmania major after 72 hr by Neubauer counting analysis. The format is functional, organism-based.

≈ marks a conversion by molar mass, not a printed value.

For orientation: IC50 means the midpoint of a concentration-inhibition curve. A high value points to weaker potency. Turning to `COc1ccc(-c2nc3ccccc3[nH]2)cc1`, the IC50 was 0.81 µg/mL (≈ 3.61 µM).
Regarding `Cc1ccc(-c2nc3cc([N+](=O)[O-])ccc3[nH]2)o1`, the IC50 is 0.64 µg/mL (≈ 2.63 µM). The IC50 values of the last two compounds are within 1.5-fold of each other.
The value for `c1csc(-c2nc3ccccc3[nH]2)c1` was 0.62 µg/mL (≈ 3.1 µM).
Regarding `c1ccc2[nH]c(-c3c[nH]c4ccccc34)nc2c1`, the IC50 came out at 0.87 µg/mL (≈ 3.73 µM).
The value for `O=[N+]([O-])c1ccc(-c2nc3cc([N+](=O)[O-])ccc3[nH]2)cc1` was 0.75 µg/mL (≈ 2.64 µM); that for `O=[N+]([O-])c1ccc2[nH]c(-c3ccc[nH]3)nc2c1` was 0.91 µg/mL (≈ 3.99 µM).
For `COc1cccc(-c2nc3cc([N+](=O)[O-])ccc3[nH]2)c1`, the IC50 was 0.82 µg/mL (≈ 3.05 µM). This IC50 and that of the compound before are within 1.5-fold of each other.
To `COc1ccc(-c2nc3cc([N+](=O)[O-])ccc3[nH]2)cc1` belongs 0.85 µg/mL (≈ 3.16 µM); to `O=[N+]([O-])c1ccc2[nH]c(-c3c[nH]c4ccccc34)nc2c1`, 0.62 µg/mL (≈ 2.23 µM); to `Fc1ccc(-c2nc3ccccc3[nH]2)cc1`, 0.79 µg/mL (≈ 3.72 µM).
`Cc1ccc(-c2nc3ccccc3[nH]2)o1` registered an IC50 of 0.84 µg/mL (≈ 4.24 µM).
In turn, `O=[N+]([O-])c1ccc2[nH]c(-c3ccc(F)cc3)nc2c1` registered an IC50 of 0.77 µg/mL (≈ 2.99 µM). This IC50 and that of the compound before are within 1.5-fold of each other.
In turn, `Oc1ccc(-c2nc3ccccc3[nH]2)cc1` came in with an IC50 of 0.92 µg/mL (≈ 4.38 µM).
To `c1c[nH]c(-c2nc3ccccc3[nH]2)c1` belongs 0.63 µg/mL (≈ 3.44 µM); to `O=[N+]([O-])c1ccccc1-c1nc2ccccc2[nH]1`, 0.69 µg/mL (≈ 2.88 µM); to `Cc1ccc(-c2nc3cc([N+](=O)[O-])ccc3[nH]2)cc1`, 0.88 µg/mL (≈ 3.47 µM).
Consider `O=[N+]([O-])c1ccc2[nH]c(-c3ccc(Cl)cc3)nc2c1`, for which the IC50 came to 0.64 µg/mL (≈ 2.34 µM). This IC50 and that of the compound before are within 1.5-fold of each other.
Regarding `c1ccc2[nH]c(-c3ccncc3)nc2c1`, half-maximal inhibition (IC50) required 0.88 µg/mL (≈ 4.51 µM). The IC50 values of the last two compounds are within 1.5-fold of each other.
The value for `O=[N+]([O-])c1cccc(-c2nc3ccccc3[nH]2)c1` was 0.82 µg/mL (≈ 3.43 µM); that for `Clc1ccc(-c2nc3ccccc3[nH]2)cc1` was 0.72 µg/mL (≈ 3.15 µM); that for `O=[N+]([O-])c1ccc(-c2nc3ccccc3[nH]2)cc1` was 0.71 µg/mL (≈ 2.97 µM).
As to `CC(C)c1ccc(-c2nc3ccccc3[nH]2)cc1`, the IC50 was 0.64 µg/mL (≈ 2.71 µM). The IC50 values of the last two compounds are within 1.5-fold of each other.
To `Clc1ccccc1-c1nc2ccccc2[nH]1` belongs 0.78 µg/mL (≈ 3.41 µM).
As to `O=[N+]([O-])c1ccc2[nH]c(-c3ccccc3[N+](=O)[O-])nc2c1`, the IC50 worked out at 0.73 µg/mL (≈ 2.57 µM).
The value for `CCCCOc1ccc(-c2nc3cc([N+](=O)[O-])ccc3[nH]2)cc1` was 0.76 µg/mL (≈ 2.44 µM); that for `O=[N+]([O-])c1ccc2[nH]c(-c3ccccn3)nc2c1` was 0.73 µg/mL (≈ 3.04 µM); that for `c1cncc(-c2nc3ccccc3[nH]2)c1` was 0.64 µg/mL (≈ 3.28 µM).
`c1ccc(-c2nc3ccccc3[nH]2)cc1` gave an IC50 of 0.68 µg/mL (≈ 3.5 µM).
For the compound `O=[N+]([O-])c1ccc2[nH]c(-c3cccnc3)nc2c1`, the IC50 was determined as 0.79 µg/mL (≈ 3.29 µM). This IC50 and that of the compound before are within 1.5-fold of each other.
`Cc1ccc(-c2nc3ccccc3[nH]2)cc1` yielded an IC50 of 0.79 µg/mL (≈ 3.79 µM).
To `O=[N+]([O-])c1ccc2nc(-c3ccccc3Cl)[nH]c2c1` belongs 0.91 µg/mL (≈ 3.33 µM); to `O=[N+]([O-])c1cccc(-c2nc3cc([N+](=O)[O-])ccc3[nH]2)c1`, 0.79 µg/mL (≈ 2.78 µM); to `O=[N+]([O-])c1ccc2[nH]c(-c3ccccc3)nc2c1`, 0.8 µg/mL (≈ 3.34 µM).
For the compound `O=[N+]([O-])c1ccc2[nH]c(-c3cccs3)nc2c1`, 0.82 µg/mL (≈ 3.34 µM) corresponded to half-maximal inhibition (IC50).
The value for `COc1cccc(-c2nc3ccccc3[nH]2)c1` was 0.77 µg/mL (≈ 3.43 µM); that for `CC(C)c1ccc(-c2nc3cc([N+](=O)[O-])ccc3[nH]2)cc1` was 0.8 µg/mL (≈ 2.84 µM); that for `CCCCOc1ccc(-c2nc3ccccc3[nH]2)cc1` was 0.65 µg/mL (≈ 2.44 µM).
